# From patent publication US20240254138A1, “TRICYCLIC PYRIMIDINES AS CYCLIN-DEPENDENT KINASE 7 (CDK7) INHIBITORS” (JANSSEN PHARMACEUTICA NV, priority 2021, published 2024)
# pKi: −log10 of the molar value. Like-named read-outs stand apart in the source and are kept apart here.
# Columns and labels:
# [1] = molecular target: CDK7/cyclinH/MAT1 trimeric complex (Homo sapiens, UniProt P50613); experiment: In vitro CDK7 assay, potency of irreversible covalent inhibitors (kinact/KI), coupled PK/LDH ADP readout at 340 nm; details: for CDK7 (kinact/KI, M^−1*s^−1): potency of irreversible covalent inhibitors
# CDK7/cyclinH/MAT1 trimeric complex, sequence (P50613 whole entry): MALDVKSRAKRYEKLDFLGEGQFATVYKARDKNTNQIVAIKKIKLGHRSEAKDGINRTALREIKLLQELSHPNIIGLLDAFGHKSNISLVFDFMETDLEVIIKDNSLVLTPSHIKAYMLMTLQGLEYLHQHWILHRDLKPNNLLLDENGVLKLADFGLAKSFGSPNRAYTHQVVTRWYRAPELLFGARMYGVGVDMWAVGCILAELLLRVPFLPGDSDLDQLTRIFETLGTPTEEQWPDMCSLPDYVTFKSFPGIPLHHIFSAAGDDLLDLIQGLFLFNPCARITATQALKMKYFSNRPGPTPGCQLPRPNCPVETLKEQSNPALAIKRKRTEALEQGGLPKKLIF
# CDK7/cyclinH/MAT1 trimeric complex, sequence (P51946 whole entry partner): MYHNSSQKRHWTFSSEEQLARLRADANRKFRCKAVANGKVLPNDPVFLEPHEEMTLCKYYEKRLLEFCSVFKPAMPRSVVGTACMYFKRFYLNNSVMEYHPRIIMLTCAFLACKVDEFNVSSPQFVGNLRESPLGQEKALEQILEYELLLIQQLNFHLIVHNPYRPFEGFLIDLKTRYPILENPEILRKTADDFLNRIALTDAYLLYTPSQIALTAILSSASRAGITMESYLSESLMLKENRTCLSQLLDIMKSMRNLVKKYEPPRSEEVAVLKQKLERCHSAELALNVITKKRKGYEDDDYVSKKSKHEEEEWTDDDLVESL
# CDK7/cyclinH/MAT1 trimeric complex, sequence (P51948 whole entry partner): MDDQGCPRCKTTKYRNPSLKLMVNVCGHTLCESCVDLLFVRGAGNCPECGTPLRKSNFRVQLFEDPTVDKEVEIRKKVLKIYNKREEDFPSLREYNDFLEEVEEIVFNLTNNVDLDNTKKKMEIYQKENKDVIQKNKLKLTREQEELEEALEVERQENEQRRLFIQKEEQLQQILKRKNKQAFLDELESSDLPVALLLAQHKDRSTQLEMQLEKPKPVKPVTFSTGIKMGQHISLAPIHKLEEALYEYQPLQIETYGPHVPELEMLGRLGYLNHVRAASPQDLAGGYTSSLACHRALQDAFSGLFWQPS
# [2] = test system: RNA Polymerase II Serine 5 phosphorylation (Rpb1 CTD, downstream substrate of CDK7) in A549 cells; experiment: Imaging-based cellular RNA PolII Ser5 phosphorylation assay in A549 cells; format: cell-based, human; details: wild-type CDK7, RNA PolII Ser5 phosphorylation, averaged over all measurements; for IC50: Homo sapiens, A549, A549 cells, read-out: CDK7_A549 Wild-type CDK7 (pIC50) (converted); for CDK7_A549 Wild-type CDK7 (pIC50): A549 cells
# Method in brief: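 A549 cells, seeded 1000/well in DMEM with 1% FBS and cultured 20 h, were treated with compound for 3 h at 37 °C. Ser5-phospho-Rpb1 CTD detected by immunofluorescence imaging after fixation and methanol permeabilization; IC50 from curve fit normalized to DMSO and 10 μM reference-compound controls.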
# [3] = test system: RNA Polymerase II Serine 5 phosphorylation in A549 cells overexpressing CDK7-mutant (C312S); experiment: Imaging-based cellular RNA PolII Ser5 phosphorylation assay in A549 cells overexpressing CDK7-mutant (C312S); format: cell-based, human; details: RNA PolII Ser5 phosphorylation, averaged over all measurements; for IC50: Homo sapiens, A549, A549 cells overexpressing CDK7-mutant (C312S), read-out: CDK7_A549 mutant hCDK7(pIC50) (converted); for CDK7_A549 mutant hCDK7(pIC50): A549 cells overexpressing CDK7-mutant (C312S)
# Method in brief: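 A549 cells overexpressing CDK7 C312S (with endogenous wild-type CDK7) were treated with compound for 3 h at 37 °C in 1% FBS medium. Phospho-Rpb1 CTD Ser5 was immunostained after fixation and imaged. IC50 came from curve fit of % control, normalised to DMSO and 10 μM reference-compound controls.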
# [4] = CDK7 (20 nM enz.) (KI, μM), 20 nM enzyme
# [5] = read-out: CDK7 (20 nM enz.) (kinact, s^−1), 20 nM enzyme
# [6] = read-out: CDK7 (20 nM enz.) (kinact/KI, M^−1*s^−1), 20 nM enzyme
# [7] = read-out: CDK7 (20 nM enz.) (kobs/[I], M^−1*s^−1), 20 nM enzyme
# [8] = CDK7 (KI(μM)), […], 1 mM ATP, room temperature, averaged values over all measurements
# [9] = read-out: CDK7 (kinact, s^−1), kinact = maximal rate of inactivation, 1 mM ATP, room temperature, averaged values over all measurements
# [10] = 1 mM ATP, room temperature, averaged values over all measurements
"Ki [1, 4]","kinact [1, 5]","kinact/KI [1, 6]",IC50 [2],IC50 [3],Structure (SMILES),further results
,,6.21 M⁻¹ s⁻¹,2880 nM,> 10000 nM,"C=CC(=O)N1CC[C@H](N2CC(c3cc4c(c(C#N)n3)O[C@@H](C)c3c(N5CCOCC5)ccnc3N4)C2)C1 (single isomer, unassigned) [Compound 508]",
1.28 µM,1.85e-05 s⁻¹,14.5 M⁻¹ s⁻¹,2400 nM,> 10000 nM,"C=CC(=O)N1CC[C@@H](N2CC(c3cc4c(c(C#N)n3)O[C@@H](C)c3c(N5CCOCC5)ccnc3N4)C2)C1 (single isomer, unassigned) [Compound 509]",
0.052 µM,,,,,"CC#CC(=O)N1CC(N2CCC(c3cc4c(c(C)n3)O[C@H](C)c3c(N5CCOCC5)ccnc3N4)CC2)C1 (single isomer, unassigned) [Compound 510]","CDK7 (20 nM enz.) (kinact, s^−1) ([1]; 20 nM enzyme): 3.092e-05 s⁻¹; CDK7 (20 nM enz.) (kinact/KI, M^−1*s^−1) ([1]; 20 nM enzyme): 594.812 M⁻¹ s⁻¹; CDK7_A549 Wild-type CDK7 (pIC50) [2]: 6.72; CDK7_A549 mutant hCDK7(pIC50) [3]: <5"
2.91 µM,4.23e-05 s⁻¹,14.3 M⁻¹ s⁻¹,3020 nM,> 10000 nM,"CC#CC(=O)N1CCC(N2CC(c3cc4c(c(C#N)n3)O[C@H](C)c3c(C5CCOCC5)ccnc3N4)C2)CC1 (single isomer, unassigned) [Compound 517]",
0.0075 µM,3.26e-05 s⁻¹,4340 M⁻¹ s⁻¹,64.6 nM,4070 nM,"CC#CC(=O)N1CCC(N2CC(c3cc4c(c(C#N)n3)O[C@@H](C)c3c(C5CCOCC5)ccnc3N4)C2)CC1 (single isomer, unassigned) [Compound 518]",
0.00977 µM,2.91e-05 s⁻¹,,158 nM,> 10000 nM,"CC#CC(=O)N1CC(N2CCC(c3cc4c(c(C#N)n3)O[C@@H](C)c3c(N5CCOCC5)ccnc3N4)CC2)C1 (single isomer, unassigned) [Compound 520]","CDK7 (20 nM enz.) (kinact/KI, M^−1*s^−1) ([1]; 20 nM enzyme): 2981 M⁻¹ s⁻¹"
1.71 µM,2.72e-05 s⁻¹,15.9 M⁻¹ s⁻¹,5250 nM,> 10000 nM,"CC#CC(=O)N1CC(N2CC[C@@H](c3cc4c(c(C)n3)O[C@@H](C)c3c(N5CCOCC5)ccnc3N4)N(C)CC2)C1 (single isomer, unassigned) [Compound 521]",
0.0109 µM,1.44e-05 s⁻¹,1320 M⁻¹ s⁻¹,141 nM,5370 nM,"CC#CC(=O)N1CC(N2CC[C@H](c3cc4c(c(C)n3)O[C@H](C)c3c(N5CCOCC5)ccnc3N4)N(C)CC2)C1 (single isomer, unassigned) [Compound 525]",
1.81 µM,1.58e-05 s⁻¹,8.74 M⁻¹ s⁻¹,9770 nM,> 10000 nM,"CC#CC(=O)N1CC(N2CC[C@@H](c3cc4c(c(C)n3)O[C@H](C)c3c(N5CCOCC5)ccnc3N4)N(C)CC2)C1 (single isomer, unassigned) [Compound 527]",
0.0976 µM,1.7e-05 s⁻¹,174 M⁻¹ s⁻¹,603 nM,> 10000 nM,"CC#CC(=O)N1CC(N2CC[C@H](c3cc4c(c(C)n3)O[C@@H](C)c3c(N5CCOCC5)ccnc3N4)N(C)CC2)C1 (single isomer, unassigned) [Compound 528]",
0.0182 µM,4.94e-05 s⁻¹,2710 M⁻¹ s⁻¹,155 nM,> 10000 nM,"CC#CC(=O)N1CC(N2CCC(c3cc4c(c(C)n3)O[C@H](C)c3c(-c5cnn(C)c5)ccnc3N4)CC2)C1 (single isomer, unassigned) [Compound 541]",
0.0082 µM,,,,,"CC#CC(=O)N1CC(N2CCC(c3cc4c(c(C#N)n3)O[C@@H](C)c3c(N5CCOCC5)ccnc3N4)CC2)C1 (single isomer, unassigned) [Compound 542]","CDK7 (20 nM enz.) (kinact, s^−1) ([1]; 20 nM enzyme): 0.0000556 s⁻¹; CDK7 (20 nM enz.) (kinact/KI, M^−1*s^−1) ([1]; 20 nM enzyme): 6751 M⁻¹ s⁻¹; CDK7_A549 Wild-type CDK7 (pIC50) [2]: 6.62; CDK7_A549 mutant hCDK7(pIC50) [3]: <5"

# Second part, the compound before the results:
Structure (SMILES),"Ki [1, 4]","kinact [1, 5]","kinact/KI [1, 6]",IC50 [2],IC50 [3],further results
"C=CC(=O)N1CCC(N2CC(c3cc4c(c(C#N)n3)O[C@@H](C)c3c(N5CCOCC5)ccnc3N4)C2)CC1 (single isomer, unassigned) [Compound 491]",0.403 µM,2.48e-05 s⁻¹,61.4 M⁻¹ s⁻¹,479 nM,> 10000 nM,
"C=CC(=O)N1CC[C@@H](N2CC(c3cc4c(c(C(F)(F)F)n3)OCc3c(-c5cnn(C)c5)ccnc3N4)C2)C1 (single isomer, unassigned) [Compound 495]",0.0763 µM,5.75e-05 s⁻¹,754 M⁻¹ s⁻¹,145 nM,> 10000 nM,
"C=CC(=O)N1CC[C@H](N2CC(c3cc4c(c(C(F)(F)F)n3)OCc3c(-c5cnn(C)c5)ccnc3N4)C2)C1 (single isomer, unassigned) [Compound 497]",0.0437 µM,5.55e-05 s⁻¹,1270 M⁻¹ s⁻¹,138 nM,> 10000 nM,
"CC#CC(=O)N1CC(N2CCC(c3cc4c(c(C5CC5)n3)O[C@@H](C)c3c(N5CCOCC5)ccnc3N4)CC2)C1 (single isomer, unassigned) [Compound 498]",0.0867 µM,5.15e-05 s⁻¹,594 M⁻¹ s⁻¹,148 nM,> 10000 nM,
"CC#CC(=O)N1CC(N2CCC(c3cc4c(c(C5CC5)n3)O[C@H](C)c3c(N5CCOCC5)ccnc3N4)CC2)C1 (single isomer, unassigned) [Compound 499]",,,,,,"CDK7 (20 nM enz.) (kinact, s^−1) ([1]; 20 nM enzyme): 4.482e-05 s⁻¹; CDK7 (20 nM enz.) (kinact/KI, M^−1*s^−1) ([1]; 20 nM enzyme): 20.4314 M⁻¹ s⁻¹; pKi ([1]; read-out: CDK7 (20 nM enz.) (KI), 20 nM enzyme): 5.66; CDK7_A549 Wild-type CDK7 (pIC50) [2]: 5.74; CDK7_A549 mutant hCDK7(pIC50) [3]: <5"
"C=CC(=O)N1CC[C@H](N2CC(c3cc4c(c(C(F)(F)F)n3)O[C@@H](C)c3c(N5CCOCC5)ccnc3N4)C2)C1 (single isomer, unassigned) [Compound 500]",,,12.7 M⁻¹ s⁻¹,1200 nM,> 10000 nM,
"C=CC(=O)N1CC[C@H](N2CC(c3cc4c(c(C(F)(F)F)n3)O[C@H](C)c3c(N5CCOCC5)ccnc3N4)C2)C1 (single isomer, unassigned) [Compound 501]",2.35 µM,3.59e-05 s⁻¹,,,> 10000 nM,"CDK7 (20 nM enz.) (kinact/KI, M^−1*s^−1) ([1]; 20 nM enzyme): 15.2689 M⁻¹ s⁻¹; CDK7_A549 Wild-type CDK7 (pIC50) [2]: 5.78"
"CC#CC(=O)N1CCC(N2CC(c3cc4c(c(C(F)(F)F)n3)O[C@@H](C)c3c(N5CCOCC5)ccnc3N4)C2)CC1 (single isomer, unassigned) [Compound 502]",,,9.74 M⁻¹ s⁻¹,603 nM,> 10000 nM,
"C=CC(=O)N1CC[C@H](N2CC(c3cc4c(c(C(F)(F)F)n3)O[C@H](C)c3c(N5CCOCC5)ccnc3N4)C2)C1 (single isomer, unassigned) [Compound 503]",,,,,,"CDK7 (20 nM enz.) (kinact/KI, M^−1*s^−1) ([1]; 20 nM enzyme): 629.38 M⁻¹ s⁻¹; CDK7_A549 Wild-type CDK7 (pIC50) [2]: 6.88; CDK7_A549 mutant hCDK7(pIC50) [3]: 5.12"
"C=CC(=O)N1CC[C@@H](N2CC(c3cc4c(c(C(F)(F)F)n3)O[C@@H](C)c3c(N5CCOCC5)ccnc3N4)C2)C1 (single isomer, unassigned) [Compound 504]",,,681 M⁻¹ s⁻¹,47.9 nM,7760 nM,
"CC#CC(=O)N1CCC(N2CC(c3cc4c(c(C(F)(F)F)n3)O[C@H](C)c3c(N5CCOCC5)ccnc3N4)C2)CC1 (single isomer, unassigned) [Compound 505]",,,246 M⁻¹ s⁻¹,38 nM,2400 nM,
"C=CC(=O)N1CC[C@@H](N2CC(c3cc4c(c(C#N)n3)O[C@H](C)c3c(N5CCOCC5)ccnc3N4)C2)C1 (single isomer, unassigned) [Compound 506]",,,,102 nM,8320 nM,"kinact/KI [1, 7]: 348 M⁻¹ s⁻¹"
"C=CC(=O)N1CC[C@H](N2CC(c3cc4c(c(C#N)n3)O[C@H](C)c3c(N5CCOCC5)ccnc3N4)C2)C1 (single isomer, unassigned) [Compound 507]",,,,110 nM,8130 nM,"kinact/KI [1, 7]: 389 M⁻¹ s⁻¹"
C=CC(=O)Nc1ccc(C(=O)Nc2ccc3c(c2)Nc2ncc(C)c(C4CCOCC4)c2CO3)cc1 [Compound 2],,,,794 nM,> 10000 nM,"Ki [1, 8]: 0.129 µM; kinact [1, 9]: 7.86e-05 s⁻¹; kinact/KI ([1]; read-out: CDK7 (kinact/KI, M^−1*s^−1), potency of irreversible covalent inhibitors, 1 mM ATP, room temperature, averaged values over all measurements): 609 M⁻¹ s⁻¹"
C=CC(=O)N1CC(N2CCC(c3ccc4c(c3)Nc3nccc(C5CCOCC5)c3CO4)CC2)C1 [Compound 3],,,,,> 10000 nM,"CDK7 (kinact/KI, M^−1*s^−1) [1, 10]: 2787.5 M⁻¹ s⁻¹; CDK7_A549 Wild-type CDK7 (pIC50) [2]: 6.89"
C=CC(=O)N1CC(N2CCC(c3ccc4c(c3)Nc3nccc(N5CCOCC5)c3CO4)CC2)C1 [Compound 4],,,,,,"Ki [1, 8]: 0.0617 µM; CDK7 (kinact/KI, M^−1*s^−1) [1, 10]: 3147.06 M⁻¹ s⁻¹; kinact [1, 9]: 0.000303 s⁻¹; CDK7_A549 Wild-type CDK7 (pIC50) [2]: 6.84; CDK7_A549 mutant hCDK7(pIC50) [3]: <5"
